We go through seven compounds from ChEMBL document CHEMBL1201862, “PubChem BioAssay data set” (2004).

Broadly, the EC50 is the concentration that produces a half-maximal response. What is called IC50 is the concentration that gives 50% inhibition.

Activity calls are given as the source filed them. A value given as a limit tells only on which side of the number the result lay.

For assay [1], the target named is T1, Type-1 angiotensin II receptor (Homo sapiens, UniProt P30556).
T1 sequence (P30556 whole entry): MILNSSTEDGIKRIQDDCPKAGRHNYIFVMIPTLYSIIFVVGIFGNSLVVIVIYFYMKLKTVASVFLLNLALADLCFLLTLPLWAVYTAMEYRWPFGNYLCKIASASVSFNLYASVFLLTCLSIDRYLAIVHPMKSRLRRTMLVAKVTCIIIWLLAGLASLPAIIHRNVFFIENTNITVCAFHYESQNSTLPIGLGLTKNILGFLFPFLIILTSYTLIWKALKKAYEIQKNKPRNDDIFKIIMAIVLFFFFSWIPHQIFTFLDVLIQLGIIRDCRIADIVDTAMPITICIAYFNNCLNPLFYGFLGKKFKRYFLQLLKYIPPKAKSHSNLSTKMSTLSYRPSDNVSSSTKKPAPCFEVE
The experiment in a line: agonist activity at AGTR1 – cell-based, uHTS hits, selectivity assay for APJ receptor agonist project, dose response (AID 488865).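 Note: beta-arrestin recruitment to AT1 measured by enzyme fragment complementation luminescence.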 In kind it is functional.

Assay [2] deals with T2, Runt-related transcription factor 1/Core-binding factor subunit beta (Homo sapiens, UniProt Q01196+Q13951). The experiment in a line: disruptors of Runt domain/CBFb-SMMHC interaction – biochemical, FRET, Cerulean-Runt, Venus-CBFb-SMMHC, uHTS, […] (AID 1434). Type of assay: protein assay.
T2 sequence (Q01196 whole entry, the tested form may be a part): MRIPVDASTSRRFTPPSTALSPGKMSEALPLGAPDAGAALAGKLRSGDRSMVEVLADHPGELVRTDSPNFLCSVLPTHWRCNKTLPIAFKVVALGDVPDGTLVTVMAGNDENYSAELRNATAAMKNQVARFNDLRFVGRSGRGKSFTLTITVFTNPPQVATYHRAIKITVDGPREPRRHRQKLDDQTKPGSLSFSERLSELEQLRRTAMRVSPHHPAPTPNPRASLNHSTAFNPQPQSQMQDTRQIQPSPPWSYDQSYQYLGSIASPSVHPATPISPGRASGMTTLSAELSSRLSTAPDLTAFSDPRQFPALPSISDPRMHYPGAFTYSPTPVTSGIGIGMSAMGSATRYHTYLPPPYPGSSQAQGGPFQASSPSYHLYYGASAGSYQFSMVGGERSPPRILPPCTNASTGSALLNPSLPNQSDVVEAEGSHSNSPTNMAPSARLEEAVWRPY
T2 sequence (Q13951 whole entry, the tested form may be a part): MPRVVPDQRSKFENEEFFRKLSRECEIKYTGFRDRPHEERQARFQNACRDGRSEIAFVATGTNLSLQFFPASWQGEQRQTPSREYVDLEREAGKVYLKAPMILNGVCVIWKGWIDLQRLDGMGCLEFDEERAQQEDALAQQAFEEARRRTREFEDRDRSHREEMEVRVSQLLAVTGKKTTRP
The target in assay [3] is T2, Runt-related transcription factor 1/Core-binding factor subunit beta. Kind of assay: Runt domain/CBFb-SMMHC interaction disruptors – biochemical, TR-FRET (AID 1438). In kind it is protein assay.
The target in assay [4] is T3, Coagulation factor XII (Homo sapiens, UniProt P00748).
T3 sequence (P00748 whole entry): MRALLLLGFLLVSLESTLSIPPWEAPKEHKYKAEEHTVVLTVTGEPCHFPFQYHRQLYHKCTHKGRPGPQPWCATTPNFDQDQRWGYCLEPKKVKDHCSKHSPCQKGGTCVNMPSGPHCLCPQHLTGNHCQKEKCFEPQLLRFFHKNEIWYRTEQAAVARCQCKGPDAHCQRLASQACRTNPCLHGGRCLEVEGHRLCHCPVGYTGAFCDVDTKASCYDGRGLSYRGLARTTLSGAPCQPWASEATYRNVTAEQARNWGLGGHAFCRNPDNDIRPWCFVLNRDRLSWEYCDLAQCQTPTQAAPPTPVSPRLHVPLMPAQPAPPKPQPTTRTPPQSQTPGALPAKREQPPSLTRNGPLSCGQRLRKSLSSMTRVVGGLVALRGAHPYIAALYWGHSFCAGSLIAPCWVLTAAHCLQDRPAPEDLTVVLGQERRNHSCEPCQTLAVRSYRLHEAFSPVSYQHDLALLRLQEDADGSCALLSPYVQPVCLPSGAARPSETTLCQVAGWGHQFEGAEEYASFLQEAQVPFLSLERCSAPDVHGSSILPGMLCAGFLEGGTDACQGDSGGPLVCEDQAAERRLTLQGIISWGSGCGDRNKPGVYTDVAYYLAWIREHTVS
The experiment in a line: activated coagulation factor XII inhibitor potency, concentration-effect curve, cell-free (AID 716). Type of assay: functional.

Assay [5] concerns the target T4, G-protein coupled receptor 35 (Homo sapiens, UniProt Q9HC97). Kind of assay: SAR analysis of Antagonists of the GPR35 Receptor using an Image-Based Assay - Set 6. [Related pubchem assays (depositor defined):AID2013, AID2026]. Type of assay: functional.
Assay [6] has as its target T4, G-protein coupled receptor 35. Kind of assay: SAR analysis of Agonists of the GPR35 Receptor using an Image-Based Assay - Set 4. [Related pubchem assays (depositor defined):AID2013, AID2026]. In kind it is functional.
Assay [7] addresses T5, Cannabinoid receptor 2 (Homo sapiens, UniProt P34972). The experiment in a line: SAR analysis of agonists of the Cannabinoid Receptor 2 using an Image-Based Assay - Set 3. [Related pubchem assays (depositor defined):AID2013, AID2026]. In kind it is functional.
For assay [8], the target named is T6, Cannabinoid receptor 1 (Homo sapiens, UniProt P21554). Kind of assay: SAR analysis of antagonists of the Cannabinoid Receptor 1 using an Image-Based Assay - Set 4. [Related pubchem assays (depositor defined):AID2013, AID2026]. In kind it is functional.
T6 sequence (P21554 whole entry): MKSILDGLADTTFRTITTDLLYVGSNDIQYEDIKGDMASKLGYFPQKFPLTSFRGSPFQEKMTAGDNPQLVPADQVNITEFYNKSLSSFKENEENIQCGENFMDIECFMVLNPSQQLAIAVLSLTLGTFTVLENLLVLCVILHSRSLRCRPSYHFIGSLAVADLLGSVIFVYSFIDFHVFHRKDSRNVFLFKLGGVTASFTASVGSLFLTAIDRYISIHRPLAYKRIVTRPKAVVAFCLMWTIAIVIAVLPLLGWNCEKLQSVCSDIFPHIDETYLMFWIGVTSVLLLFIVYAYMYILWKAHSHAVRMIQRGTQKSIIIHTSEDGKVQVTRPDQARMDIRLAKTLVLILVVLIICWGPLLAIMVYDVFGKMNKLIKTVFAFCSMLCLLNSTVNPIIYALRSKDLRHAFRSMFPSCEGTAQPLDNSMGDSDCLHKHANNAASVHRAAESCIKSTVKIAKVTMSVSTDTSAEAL
In assay [9] the target is T5, Cannabinoid receptor 2. The experiment in a line: SAR analysis of antagonists of the Cannabinoid Receptor 2 using an Image-Based Assay - Set 3. [Related pubchem assays (depositor defined):AID2013, AID2026]. Type of assay: functional.
Assay [10] deals with G-protein coupled receptor 55 (Homo sapiens, UniProt Q9Y2T6). The experiment in a line: SAR Analysis of Selective Antagonists of GPR55 using an Image-Based Assay - Set 4. [Related pubchem assays (depositor defined):AID2013, AID2026]. In kind it is functional.
Sequence of G-protein coupled receptor 55 (Q9Y2T6 whole entry): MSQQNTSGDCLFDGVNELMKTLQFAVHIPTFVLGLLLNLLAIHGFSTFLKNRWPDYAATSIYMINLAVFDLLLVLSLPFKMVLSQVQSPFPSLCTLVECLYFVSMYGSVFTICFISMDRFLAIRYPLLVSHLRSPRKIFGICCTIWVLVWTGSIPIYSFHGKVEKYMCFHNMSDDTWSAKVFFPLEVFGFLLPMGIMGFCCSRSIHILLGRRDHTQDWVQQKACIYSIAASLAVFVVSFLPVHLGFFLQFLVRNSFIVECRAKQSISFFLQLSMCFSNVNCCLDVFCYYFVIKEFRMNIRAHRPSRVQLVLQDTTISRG
For assay [11], the target named is T6, Cannabinoid receptor 1. Kind of assay: SAR analysis of agonists of the Cannabinoid Receptor 1 using an Image-Based Assay - Set 4. [Related pubchem assays (depositor defined):AID2013, AID2026]. Type of assay: functional.
In assay [12] the target is Signal transducer and activator of transcription 1-alpha/beta (Homo sapiens, UniProt P42224). The experiment in a line: STAT3 blockade with qPCR and toxicity readouts – cell-based, STAT1 panel, cytotoxicity, late-stage follow-up, panel member STAT1 Inhibition (AID 2078). (In general: Real-time PCR tracks product formation cycle by cycle.)
For assay [13], the target named is Signal transducer and activator of transcription 3 (Homo sapiens, UniProt P40763). Kind of assay: STAT3 blockade with qPCR and toxicity readouts – cell-based, STAT1 panel, cytotoxicity, late-stage follow-up, panel member STAT3 Inhibition (AID 2078).
The target in assay [14] is Sphingosine 1-phosphate receptor 3 (Homo sapiens, UniProt Q99500). Kind of assay: Late-stage fluorescence-based dose-response cell-based assay to identify agonists of the Sphingosine 1-Phosphate Receptor 4 (S1P4): Sphingosine 1-Phosphate Receptor 3 (S1P3) counterscreen assay. [Related pubchem assays (depositor defined):AID1509, AID1523, AID1563, AID1686, AID1701, AID1801, AID463107, AID463225, AID504400]. In kind it is functional. (Counterscreens check selectivity or assay interference.)
Sequence of Sphingosine 1-phosphate receptor 3 (Q99500 whole entry): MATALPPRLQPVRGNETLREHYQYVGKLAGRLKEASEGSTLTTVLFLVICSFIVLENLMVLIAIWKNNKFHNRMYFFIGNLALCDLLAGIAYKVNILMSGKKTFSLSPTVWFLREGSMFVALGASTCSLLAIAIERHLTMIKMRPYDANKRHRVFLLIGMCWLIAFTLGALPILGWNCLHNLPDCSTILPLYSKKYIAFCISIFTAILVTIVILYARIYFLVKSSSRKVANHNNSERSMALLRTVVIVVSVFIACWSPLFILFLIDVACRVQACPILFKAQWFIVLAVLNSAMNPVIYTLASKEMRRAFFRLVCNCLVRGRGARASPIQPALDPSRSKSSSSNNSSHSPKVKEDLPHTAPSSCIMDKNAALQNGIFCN

In assay [15] the target is Sphingosine 1-phosphate receptor 1 (Homo sapiens, UniProt P21453). The experiment in a line: Late-stage fluorescence-based dose-response cell-based assay to identify agonists of the Sphingosine 1-Phosphate Receptor 4 (S1P4): Sphingosine 1-Phosphate Receptor 1 (S1P1) counterscreen assay. [Related pubchem assays (depositor defined):AID1509, AID1523, AID1563, AID1686, AID1701, AID1801, AID463107, AID463225, AID504400]. In kind it is functional.
Sequence of Sphingosine 1-phosphate receptor 1 (P21453 whole entry): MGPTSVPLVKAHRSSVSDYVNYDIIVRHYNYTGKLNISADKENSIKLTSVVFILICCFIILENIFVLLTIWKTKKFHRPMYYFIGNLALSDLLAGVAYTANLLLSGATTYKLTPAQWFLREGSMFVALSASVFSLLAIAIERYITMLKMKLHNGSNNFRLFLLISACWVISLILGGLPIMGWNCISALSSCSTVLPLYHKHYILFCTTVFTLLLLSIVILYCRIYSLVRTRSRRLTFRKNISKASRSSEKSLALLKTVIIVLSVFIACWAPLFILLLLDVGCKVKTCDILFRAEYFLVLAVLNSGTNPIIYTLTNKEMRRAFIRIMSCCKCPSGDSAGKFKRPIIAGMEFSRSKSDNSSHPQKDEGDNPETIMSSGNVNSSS

In assay [16] the target is Sphingosine 1-phosphate receptor 5 (Homo sapiens, UniProt Q9H228). The experiment in a line: Late-stage fluorescence-based dose-response cell-based assay to identify agonists of the Sphingosine 1-Phosphate Receptor 4 (S1P4): Sphingosine 1-Phosphate Receptor 5 (S1P5) counterscreen assay. [Related pubchem assays (depositor defined):AID1509, AID1523, AID1563, AID1686, AID1701, AID1801, AID463107, AID463225, AID504400]. Type of assay: functional.
Sequence of Sphingosine 1-phosphate receptor 5 (Q9H228 whole entry): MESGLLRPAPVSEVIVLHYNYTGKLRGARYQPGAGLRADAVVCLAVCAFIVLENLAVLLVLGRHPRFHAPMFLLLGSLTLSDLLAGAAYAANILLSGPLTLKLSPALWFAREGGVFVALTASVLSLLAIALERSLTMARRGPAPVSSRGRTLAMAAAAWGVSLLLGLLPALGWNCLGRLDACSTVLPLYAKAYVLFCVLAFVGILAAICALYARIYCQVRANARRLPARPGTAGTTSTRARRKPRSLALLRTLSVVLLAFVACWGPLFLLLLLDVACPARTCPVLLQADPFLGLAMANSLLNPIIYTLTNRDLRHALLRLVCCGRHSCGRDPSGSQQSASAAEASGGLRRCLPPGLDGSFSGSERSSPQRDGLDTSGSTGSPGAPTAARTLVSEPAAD

Assay [17] addresses Sphingosine 1-phosphate receptor 2 (Homo sapiens, UniProt O95136). The experiment in a line: Late-stage fluorescence-based dose-response cell-based assay to identify agonists of the Sphingosine 1-Phosphate Receptor 4 (S1P4): Sphingosine 1-Phosphate Receptor 2 (S1P2) counterscreen assay. [Related pubchem assays (depositor defined):AID1509, AID1523, AID1563, AID1686, AID1701, AID1801, AID463107, AID463225, AID504400]. Type of assay: functional.

Assay [18] addresses T7, Dual specificity protein phosphatase 6 (Rattus norvegicus, UniProt Q64346).
T7 sequence (Q64346 whole entry): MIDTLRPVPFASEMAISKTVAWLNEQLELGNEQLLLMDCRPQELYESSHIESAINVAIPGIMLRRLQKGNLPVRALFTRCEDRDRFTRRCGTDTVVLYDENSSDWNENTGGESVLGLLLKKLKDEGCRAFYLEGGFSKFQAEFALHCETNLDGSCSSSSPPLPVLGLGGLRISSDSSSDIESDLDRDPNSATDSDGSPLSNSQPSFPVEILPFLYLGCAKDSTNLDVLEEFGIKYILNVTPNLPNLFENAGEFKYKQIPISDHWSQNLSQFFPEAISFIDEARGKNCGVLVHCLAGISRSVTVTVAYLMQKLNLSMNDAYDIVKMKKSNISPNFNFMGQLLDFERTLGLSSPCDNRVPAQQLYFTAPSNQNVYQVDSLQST
In kind it is functional.

The target in assay [19] is T8, Tyrosine-protein phosphatase non-receptor type 22 (Homo sapiens, UniProt Q9Y2R2).
T8 sequence (Q9Y2R2 whole entry): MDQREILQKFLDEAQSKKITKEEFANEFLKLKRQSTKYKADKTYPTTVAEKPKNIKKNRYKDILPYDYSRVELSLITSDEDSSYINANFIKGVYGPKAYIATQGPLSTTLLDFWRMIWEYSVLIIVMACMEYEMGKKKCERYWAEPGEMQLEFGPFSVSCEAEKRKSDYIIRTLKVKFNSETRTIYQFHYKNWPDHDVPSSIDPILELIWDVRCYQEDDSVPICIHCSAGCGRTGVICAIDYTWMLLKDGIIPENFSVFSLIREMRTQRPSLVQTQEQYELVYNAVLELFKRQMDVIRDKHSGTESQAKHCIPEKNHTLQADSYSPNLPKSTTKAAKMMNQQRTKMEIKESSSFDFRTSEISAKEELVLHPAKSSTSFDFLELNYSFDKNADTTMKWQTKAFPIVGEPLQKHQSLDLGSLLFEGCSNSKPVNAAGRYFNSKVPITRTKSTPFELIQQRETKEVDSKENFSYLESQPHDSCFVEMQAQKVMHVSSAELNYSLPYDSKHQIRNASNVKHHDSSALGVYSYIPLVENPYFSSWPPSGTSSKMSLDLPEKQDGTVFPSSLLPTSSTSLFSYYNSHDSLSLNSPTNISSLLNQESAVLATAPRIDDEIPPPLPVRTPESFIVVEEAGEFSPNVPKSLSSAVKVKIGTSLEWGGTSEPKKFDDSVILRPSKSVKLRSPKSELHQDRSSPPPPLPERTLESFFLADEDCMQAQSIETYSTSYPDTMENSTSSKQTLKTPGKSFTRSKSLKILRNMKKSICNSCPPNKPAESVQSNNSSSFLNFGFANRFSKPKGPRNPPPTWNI
Kind of assay: SAR LYP1 Fluorescent Assay using OMFP substrate for In Vitro dose response studies - Set 3. [Related pubchem assays (depositor defined):AID1779, AID1784, AID2140, AID2686]. In kind it is functional.

Assay [20] has as its target T9, Tyrosine-protein phosphatase non-receptor type 7 (Homo sapiens, UniProt P35236).
T9 sequence (P35236 whole entry): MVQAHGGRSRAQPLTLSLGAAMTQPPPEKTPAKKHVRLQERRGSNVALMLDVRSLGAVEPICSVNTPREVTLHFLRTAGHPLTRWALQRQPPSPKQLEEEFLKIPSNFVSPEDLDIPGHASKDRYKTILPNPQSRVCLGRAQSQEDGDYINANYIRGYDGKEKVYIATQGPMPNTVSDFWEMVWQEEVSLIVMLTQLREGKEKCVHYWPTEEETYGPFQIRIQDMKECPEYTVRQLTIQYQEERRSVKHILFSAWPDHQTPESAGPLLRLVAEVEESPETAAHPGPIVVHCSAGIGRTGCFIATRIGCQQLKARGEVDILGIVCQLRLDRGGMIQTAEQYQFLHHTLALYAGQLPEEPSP
Kind of assay: inhibition of hematopoietic tyrosine phosphatase HePTP – biochemical, set 2, SAR follow-up (AID 449736). In kind it is functional.

Assay [21] has as its target T9, Tyrosine-protein phosphatase non-receptor type 7. The experiment in a line: redox-active compounds inhibiting HePTP phosphatase – biochemical, fluorescence, mechanism study (AID 2068). Type of assay: functional.
Assay [22] addresses T8, Tyrosine-protein phosphatase non-receptor type 22. Kind of assay: inhibition of lymphoid tyrosine phosphatase LYP – biochemical, pCAP fluorogenic substrate, fluorescence, set 3, SAR follow-up (AID 449727). In kind it is functional.
Assay [23] addresses Tyrosine-protein phosphatase non-receptor type 12 (Homo sapiens, UniProt Q05209). Kind of assay: SAR Selectivity Analysis of small molecule inhibitors of PEST using pCAP in a fluorescence assay. [Related pubchem assays (depositor defined):AID1779, AID1784, AID2135]. Type of assay: functional.
Assay [24] deals with Dual specificity protein phosphatase 3 (Homo sapiens, UniProt P51452). The experiment in a line: SAR VHR1 Fluorescent Assay for In Vitro dose response studies Set 2. [Related pubchem assays (depositor defined):AID1654, AID1661, AID1878]. Type of assay: functional.
Sequence of Dual specificity protein phosphatase 3 (P51452 whole entry): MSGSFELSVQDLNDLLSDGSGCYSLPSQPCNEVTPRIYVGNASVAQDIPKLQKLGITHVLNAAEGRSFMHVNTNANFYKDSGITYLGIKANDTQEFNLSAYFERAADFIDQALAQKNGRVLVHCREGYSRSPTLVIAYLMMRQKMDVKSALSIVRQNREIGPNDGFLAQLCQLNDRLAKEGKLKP

T4 sequence (Q9HC97 whole entry): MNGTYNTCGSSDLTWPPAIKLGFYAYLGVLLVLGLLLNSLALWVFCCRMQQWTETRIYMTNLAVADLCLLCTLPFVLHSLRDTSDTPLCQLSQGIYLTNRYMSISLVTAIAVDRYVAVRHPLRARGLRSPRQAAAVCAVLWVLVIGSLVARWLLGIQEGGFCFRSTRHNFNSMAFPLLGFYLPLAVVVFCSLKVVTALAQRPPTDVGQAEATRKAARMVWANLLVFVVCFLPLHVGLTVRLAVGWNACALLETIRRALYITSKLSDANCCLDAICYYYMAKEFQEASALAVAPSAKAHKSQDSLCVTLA
T5 sequence (P34972 whole entry): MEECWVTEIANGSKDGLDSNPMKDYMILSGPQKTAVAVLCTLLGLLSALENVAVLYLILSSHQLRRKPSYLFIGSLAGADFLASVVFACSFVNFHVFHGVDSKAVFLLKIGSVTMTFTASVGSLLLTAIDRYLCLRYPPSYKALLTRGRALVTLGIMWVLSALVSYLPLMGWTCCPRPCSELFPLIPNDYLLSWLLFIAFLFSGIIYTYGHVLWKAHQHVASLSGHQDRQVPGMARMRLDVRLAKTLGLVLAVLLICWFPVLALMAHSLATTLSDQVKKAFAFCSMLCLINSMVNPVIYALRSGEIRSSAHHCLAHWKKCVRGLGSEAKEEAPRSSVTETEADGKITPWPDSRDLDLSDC
Sequence of Tyrosine-protein phosphatase non-receptor type 12 (Q05209 whole entry): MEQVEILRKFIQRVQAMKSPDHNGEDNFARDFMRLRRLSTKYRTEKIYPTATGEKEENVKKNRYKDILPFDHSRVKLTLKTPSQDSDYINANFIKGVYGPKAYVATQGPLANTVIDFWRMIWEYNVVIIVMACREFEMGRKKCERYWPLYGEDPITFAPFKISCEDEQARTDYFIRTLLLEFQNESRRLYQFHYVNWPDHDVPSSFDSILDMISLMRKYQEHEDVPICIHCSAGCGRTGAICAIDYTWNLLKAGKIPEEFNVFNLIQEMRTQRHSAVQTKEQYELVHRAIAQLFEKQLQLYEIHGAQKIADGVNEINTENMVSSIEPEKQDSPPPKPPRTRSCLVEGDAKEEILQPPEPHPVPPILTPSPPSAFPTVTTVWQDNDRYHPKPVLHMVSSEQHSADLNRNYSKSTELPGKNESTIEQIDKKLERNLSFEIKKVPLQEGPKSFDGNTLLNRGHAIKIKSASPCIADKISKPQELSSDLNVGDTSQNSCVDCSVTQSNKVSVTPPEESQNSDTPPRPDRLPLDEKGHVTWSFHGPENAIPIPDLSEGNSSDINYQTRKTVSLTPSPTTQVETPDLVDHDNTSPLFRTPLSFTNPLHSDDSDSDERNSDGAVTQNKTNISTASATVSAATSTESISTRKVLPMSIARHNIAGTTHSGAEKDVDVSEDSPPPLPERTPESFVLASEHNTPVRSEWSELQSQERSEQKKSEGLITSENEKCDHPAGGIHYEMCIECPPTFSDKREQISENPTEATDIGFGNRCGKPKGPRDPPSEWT
Sequence of Sphingosine 1-phosphate receptor 2 (O95136 whole entry): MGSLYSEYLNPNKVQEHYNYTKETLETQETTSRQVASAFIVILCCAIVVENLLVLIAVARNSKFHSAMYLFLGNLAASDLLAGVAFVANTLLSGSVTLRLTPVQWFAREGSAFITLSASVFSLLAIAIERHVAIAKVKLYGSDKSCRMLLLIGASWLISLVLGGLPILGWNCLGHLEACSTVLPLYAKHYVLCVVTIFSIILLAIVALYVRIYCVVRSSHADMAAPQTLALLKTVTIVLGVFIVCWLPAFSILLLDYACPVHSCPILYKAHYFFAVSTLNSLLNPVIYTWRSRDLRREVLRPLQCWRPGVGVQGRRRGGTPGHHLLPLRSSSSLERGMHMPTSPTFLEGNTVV

As to `COc1cc(NC(=S)NC(=O)CCc2ccccc2)cc(OC)c1`, in assay [1], the EC50 is > 100 µM (inactive).
Regarding `CCc1nnc(NC(=O)c2sc3nc4c(cc3c2N)CCCCC4)s1`, the IC50 in [2] is 26.5 µM (active); in [3], 16.6 µM (active).
Take `COc1cc(NC(=O)COc2cccc(OC)c2)cc(OC)c1`: the IC50 in assay [4] is > 50 µM (inactive).
Regarding `Cc1nc(N2CCN(C(=O)C(C)C)CC2)c2c3c(sc2n1)CCCC3`, the IC50 was > 32 µM (inactive) in [5], 14.7 µM (inactive) in [8], > 32 µM (inactive) in [9] and 22.7 µM (inactive) in [10]. The EC50 in assay [6], in [7] and in [11] was > 32 µM (inactive) throughout.
Take `Cc1nc(N2CCC(C(O)c3ccccc3)CC2)c2c3c(sc2n1)CCCC3` (centres undefined): the IC50 in assay [12] and in [13] was > 55.7 µM (inactive) throughout.
Take `Cc1ccc(OCCOc2ccc(Cl)cc2Cl)c(Br)n1`: the EC50 in assay [14], in assay [15], in assay [16] and in assay [17] was > 50 µM (inactive) each time.
Take `COC(=O)COc1ccc(/C=C2\SC(=Nc3ccc(F)cc3)NC2=O)cc1`: the IC50 in [18] was 50.7 µM (active); in [19], 3.49 µM (active); in assay [20] it was 1.58 µM (active); in [21], 1.07 µM (active); in assay [22] it was 3.39 µM (active); in [23] it was 0.975 µM (active). In addition, in [24], the IC50 is 2.49 µM (active).
